The text below walks through data of patent US11345666B2, “Phenyl and pyridinyl substituted imidazoles as modulators of RORγT” (Janssen Pharmaceutica NV, priority 2018, dated 2022).

The structures appear in SMILES notation.

In assay [1] the test system is Th17-dependent learned helplessness. The note with it: mice; cited from earlier work.
The next assay has as its system obese diabetic mice. The note with it: cited from earlier work.
The target of assay [2] is human RORγt ligand binding domain (RORγt LBD) (Homo sapiens (Human), UniProt P51449). Briefly: RORγt ThermoFluor assay. The method, boiled down: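 Thermal shift of His-tagged human RORγt LBD (0.065 mg/mL) with 60 μM 1,8-ANS in 100 mM Hepes pH 7.0, 10 mM NaCl, 2.5 mM GSH, 0.002% Tween-20, heated at 1° C./min. Compounds in 1:2 series from a 10 mM DMSO stock; KD estimated from ΔTm using protein unfolding thermodynamics.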
Sequence of human RORγt ligand binding domain (RORγt LBD) (P51449 other isoform, or with tags, fused parts or gaps): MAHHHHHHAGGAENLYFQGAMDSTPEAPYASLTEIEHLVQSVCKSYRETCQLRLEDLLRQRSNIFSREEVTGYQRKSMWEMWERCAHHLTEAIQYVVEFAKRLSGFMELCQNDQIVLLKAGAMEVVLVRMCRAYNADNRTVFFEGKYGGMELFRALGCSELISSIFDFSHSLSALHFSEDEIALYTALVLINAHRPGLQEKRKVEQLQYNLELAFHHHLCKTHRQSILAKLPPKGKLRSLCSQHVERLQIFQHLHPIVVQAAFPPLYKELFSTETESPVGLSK
In general terms: Differential scanning fluorimetry follows unfolding on heating by fluorescence.

The target in the next assay is full-length human RORγt (Homo sapiens (Human), UniProt P51449). The assay is described as follows: RORγt (full-length human) reporter assay, conditions A or B. It counts as cell-based. The note with it: for IC50: HEK293T cells, read-out: RORγt (FL) Reporter Assay A or B, IC50. The gist of the method:
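HEK293T cells transiently co-transfected (PEI) with GAL4-DBD–RORγt, GAL4-firefly luciferase and CMV-Renilla reporters; condition A 35,000 cells/well, 170.5 ng DNA/well; condition B 8750 cells/well, 42.6 ng DNA/well.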

Sequence of full-length human RORγt (P51449 other isoform, or with tags, fused parts or gaps): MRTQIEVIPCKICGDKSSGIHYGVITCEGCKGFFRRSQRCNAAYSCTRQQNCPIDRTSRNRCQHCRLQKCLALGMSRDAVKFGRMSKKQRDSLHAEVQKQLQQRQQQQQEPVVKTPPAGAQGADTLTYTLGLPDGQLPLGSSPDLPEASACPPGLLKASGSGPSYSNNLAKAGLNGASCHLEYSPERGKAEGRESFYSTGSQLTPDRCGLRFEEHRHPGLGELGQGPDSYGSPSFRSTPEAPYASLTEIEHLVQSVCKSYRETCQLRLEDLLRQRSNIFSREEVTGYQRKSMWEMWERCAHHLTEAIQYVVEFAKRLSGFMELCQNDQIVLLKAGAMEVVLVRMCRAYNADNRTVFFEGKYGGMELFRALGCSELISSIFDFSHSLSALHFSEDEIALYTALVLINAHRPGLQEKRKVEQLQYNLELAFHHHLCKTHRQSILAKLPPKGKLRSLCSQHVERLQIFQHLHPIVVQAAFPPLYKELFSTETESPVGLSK

As to `CC(=O)Nc1nc(C)c(S(=O)(=O)Nc2ccc(C(O)(C(F)(F)F)C(F)(F)F)cc2)s1` [SR1001], the Th17-dependent learned helplessness result in assay [1] is “reduced”.
`CC(=O)N1CCN(Cc2ccc(-c3ccc(C(O)(C(F)(F)F)C(F)(F)F)cc3)cc2)CC1` [SR1555]: in the assay with obese diabetic mice, the body weight result is listed as “reduced”, the fat mass result is given as “significant reduction”, the food intake result is “modest reduction” and the insulin sensitivity entry is given as “improved”.
Regarding `Cc1nc(C(=O)NC[C@H]2CC[C@H](S(C)(=O)=O)CC2)c(Cl)n1-c1ncc(CC(C)(C)C(F)(F)F)cc1OC(F)F` [Example 133, 5-Chloro-1-(3-(difluoromethoxy)-5-(3,3,3-trifluoro-2,2-dimethylpropyl)pyridin-2-yl)-2-methyl-N-(((1r,4r)-4-(methylsulfonyl)cyclohexyl)methyl)-1H-imidazole-4-carboxamide], the Kd (in general, the concentration at which binding is half-saturated) in assay [2] is 9.5 nM. In addition, the inhibition (in general, the relative decrease from the control value, in per cent) at 3 µM on full-length human RORγt (3 μM compound concentration (*), read-out: RORγt (FL) Reporter Assay A or B, % inhibition) is 72%. In addition, on full-length human RORγt, the IC50 (commonly the concentration that inhibits the measured activity by half) came out at 37 nM.
Regarding `CCc1nc(C(=O)NC[C@H]2CC[C@H](S(C)(=O)=O)CC2)c(Cl)n1-c1ccc(CC(C)C)cc1OC` [Example 89, 5-Chloro-2-ethyl-1-(4-isobutyl-2-methoxyphenyl)-N-(((1r,4r)-4-(methylsulfonyl)cyclohexyl)methyl)-1H-imidazole-4-carboxamide], the affinity in assay [2], expressed as Kd, was 0.2 nM. Besides, at full-length human RORγt (0.67 μM compound concentration (****), read-out: RORγt (FL) Reporter Assay A or B, % inhibition), the inhibition at 0.67 µM is 66%. In addition, the IC50 on full-length human RORγt turned out to be 16 nM.
